Literature values, collected in patent publication US8088413B2, “Methods for improved cryo-chemotherapy tissue ablation” (Nuvue Therapeutics, Inc., priority 2004, dated 2012).

Experiments:
[1] = system: human prostate cancer cell line, PC3; conditions: free drug given 2 to 4 days prior to freezing; drug and cryo levels individually ineffective
human prostate cancer = conditions: pretreatment; temperatures close to 0° C.

Molecule	kill efficacy of cryoinjury [1]	effect on cryoinjury (human prostate cancer)
O=c1[nH]cc(F)c(=O)[nH]1 [5-fluorouracil (5-FU), 5-fluorouracil]	increased kill efficacy	–
Tumor Necrosis Factor-alpha	–	augments the cryoinjury
